The results in this text go back to patent US5734081A, “Arylthio compounds” (Warner-Lambert Company, priority 1995, dated 1998).

Data set [1] relates to HIV-1VIHU. The experiment in a line: Anti-HIV activity, clinical isolate HIV-1VIHU in PBL. The data set is classed as cell-based. The following applies: Human immunodeficiency virus 1. How it is done: (§1) The compounds of the invention were also evaluated against various other HIV strains and cell lines utilizing the assay methodology described above. The compounds were additionally evaluated against clinical isolates of HIV strains.

Data set [2] has as its system HIV-1. The experiment in a line: HIV H9 cell assay, anti-HIV-1 activity. The data set is classed as cell-based. Conditions: Human immunodeficiency virus 1, H9, 168 h, read-out: EC50 (Effective Concentration which protects cells from viral cytopathic effects). An excerpt: Another test system utilized to evaluate the invention compounds is called HIV H9 assay. The HIV H9 cell assay measures the inhibitor concentration required to suppress HIV-1 virus replication. In this system, viral growth occurs through multiple rounds of the life-cycle. Any suppression of the replication kinetics results in a geometric decrease in virus production. As a result, this assay is a sensitive means of measuring the ability of a compound to inhibit HIV-1 viral replication.
(§2) The H9 T-cell line is batch infected with HIV virus at an M0I of 0.01. After 2 hours absorption, the cells are washed, resuspended in RPMI-1640/10% fetal calf serum, and seeded at […] of a 96-well plate. A duplicate plate of uninfected H9 cells is prepared for the cytotoxicity assay. Drugs are serially diluted 1/3.16 in DMSO, transferred to media at an 8× concentration, and then added to the cultures in triplicate. The final DMSO concentration of 0.002 (0.2%).
(§3) Viral production is measured by RT assay and cytotoxicity is measured by XTT assay at 7 days post-infection. The RT assay is performed as a modification of Borroto-Esoda and Boone, J. Virol., 1991;65:1952-1959 and quantitated using a Molecular Dynamics Phosphoimager with Imagequant software. The XTT assay is performed as a modification of Roehm, et al., J. Immuno. Methods., 1991;142:257-265 and quantitated using a molecular Devices Thermomax plate reader with Softmax software.
(§4) Data is electronically transferred to a Microsoft Excell spreadsheet for analysis. The RT assay values equivalent to 50% and 90% inhibition of virus production are calculated from the untreated controls. The concentrations of inhibitor required to produce these values (IC50 and IC90) are interpolated from data points flanking these RT activities. The XTT assay values equivalent to 50% cytotoxicity are calculated from the untreated controls. The concentrations of inhibitor required to produce this value are interpolated from data points flanking these XTT values.
A general note: Protection from cytopathic effect is a common read-out in antiviral testing.

The test system of data set [3] is HIV-2ROD. The experiment in a line: Anti-HIV activity, HIV-2ROD in CEM cells. The following applies: Human immunodeficiency virus 2, CCRF-CEM; CEM, HIV-2ROD; read-out: EC50. The data set is classed as cell-based. On the procedure:
(§5) Yet another test system employed to determine antiviral activity is called the CEM cell assay.
(§6) T4 lymphocytes (CEM cell line) are exposed to HIV at a virus to cell ratio approximately 0.05, and plated along with noninfected control cells in 96-well microliter plates.
(§7) The candidate agent is dissolved in dimethyl sulfoxide (unless otherwise noted), then diluted 1:200 in cell culture medium. Further dilutions (half-log10) are prepared before adding to an equal volume of medium containing either infected or noninfected cells. Cultures are incubated at 37° in a 5% carbon dioxide atmosphere for 6 or 7 days. The tetrazolium salt, XTT, is added to all wells, and cultures are incubated to allow formazan color development by viable cells (J. National Cancer Institute, 1989;81:577-586). Individual wells are analyzed spectrophotometrically to quantitate formazan production, and in addition are viewed microscopically for detection of viable cells confirmation of protective activity.
(§8) Drug-tested virus-infected cells are compared with drug-treated noninfected cells and with other appropriate controls (untreated infected and untreated noninfected cells, drug-contain wells without cells, etc.) on the same plate. Data are reviewed in comparison with other tests done at the same time and a determination about activity is made.
as §1

The subject of data set [4] is HIV-1IIIb. Kind of data set: Anti-HIV activity, HIV-1IIIb in CEM cells. The data set is classed as cell-based. The following applies: CEM, HIV-1IIIb, read-out: EC50. How it is done: as §5, §6, §7, §8, §1
Data set [5] deals with HIV-1IIIb. The experiment in a line: Anti-HIV activity, HIV-1IIIb in MT-2 cells. The following applies: Human immunodeficiency virus 1, MT2; MT-2, HIV-1IIIb. The data set is classed as cell-based. On the procedure:
as §1

Data set [6] in a line: CEM cell growth inhibition (XTT, noninfected cells). The data set is classed as cell-based. Conditions: human, CEM Cell Assay, drug alone, read-out: IC50 (Inhibitory Concentration where drug alone inhibits cell growth). The method in brief:
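Uninfected CEM T4 lymphocytes were run alongside HIV-infected cultures. Compound in DMSO was diluted 1:200 in medium, then in half-log10 steps, and added to an equal volume of cells.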
For orientation: Tetrazolium assays rely on reduction of a dye to a coloured formazan, in cell work by metabolically active cells.

Data set [7] concerns HIV-1IIIb. The experiment in a line: Anti-HIV activity, HIV-1IIIb in AA5 cells. The following applies: Human immunodeficiency virus 1; AA5, HIV-1IIIb. The data set is classed as cell-based. On the procedure:
as §1

The test system of data set [8] is HIV-1N119. The experiment in a line: Anti-HIV activity, HIV-1N119 in CEM cells. The following applies: Human immunodeficiency virus 1, CCRF-CEM. The data set is classed as cell-based. On the procedure:
as §5, §6, §7, §8, §1

The test system of data set [9] is SIV. Kind of data set: Antiviral activity, SIV in CEM cells. The following applies: Simian immunodeficiency virus, CCRF-CEM, read-out: EC50. The data set is classed as cell-based.
Data set [10] can be described thus: H9 cell cytotoxicity (XTT assay, uninfected cells). The data set is classed as cell-based. The following applies: human, drug alone, read-out: IC50 (Inhibitory Concentration where drug alone inhibits cell growth). On the procedure:
as §2, §3, §4

For data set [11], the target named is T1, HIV-1 Nucleocapsid Protein (NCp7) (Human immunodeficiency virus type 1 group M subtype B, UniProt P12493).
T1 construct: The NCp7 protein containing 2 Zn-fingers and 2 Zn ions is incubated with drug
Kind of data set: Zinc extrusion assay (TSQ fluorescence) from the zinc fingers of HIV-1 nucleocapsid protein (NCp7). The data set is classed as biochemical. Conditions: 10 μM compound, 2.8 μM NCp7, pH 7.4, 26° C., 90 minutes. The method, boiled down:
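Purified NCp7 (2.8 μM, 2 Zn ions) incubated with 10 μM compound and 47 μM TSQ at pH 7.4, 26° C, 90 min; released Zn read by TSQ fluorescence (ex 355, em 400 nm) over time. % extrusion = measured fluorescence over that for full theoretical Zn release (5.6 μM) ×100.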

Setting [12] is: Human immunodeficiency virus 1, CCRF-CEM.

On to `CC(=O)Nc1ccc(SSc2ccc(NC(C)=O)cc2C(N)=O)c(C(N)=O)c1` [Example 9, 2,2'-Dithiobis(5-acetylamino)benzamide], for which the EC50 in data set [1] was determined as 5.2 µM; in data set [2] it was 1700 nM; in [3] it was 1000 nM; in [4] (setting [12]), 400 nM; in data set [5], 9.4 µM; in data set [7], 3500 nM. The EC50 turned out to be 2300 nM in [8] and 2.1 µM in data set [9]. The CC50 in [6] was above 120 µM. Also, the CC50 at 168 h in data set [10] was above 100 µM. The “% Zinc Extrusion Relative to Control” value in data set [11] amounted to 77%.
With `NS(=O)(=O)c1ccc(NC(=O)c2ccccc2SSc2ccccc2C(=O)Nc2ccc(S(N)(=O)=O)cc2)cc1` [Example 1], the EC50 in data set [1] was 3.6 µM; in data set [2], 700 nM; in data set [3], 2600 nM; in [4], 4600 nM; in data set [4] (setting [12]), 2800 nM; in data set [5], 2.6 µM. Further, the figures for the EC50 in data set [7], in data set [8] and in data set [9] were 900 nM, 2200 nM and 14.6 µM, respectively. Besides, in [6], the CC50 was above 120 µM. In [10], the CC50 at 168 h turned out to be 36 µM. For the same compound, the “% Zinc Extrusion Relative to Control” value in data set [11] turned out to be 20%.
